Measured values from article PMC10746112, “Synthesis and Pro-Apoptotic Effects of Nitrovinylanthracenes and Related Compounds in Chronic Lymphocytic Leukaemia (CLL) and Burkitt’s Lymphoma (BL)” (Molecules, 2023).
Values joined by “and” are separate entries in the source; they are usually repeats but may differ in a detail not shown here. Identical values can stand only once. Like-named read-outs stand apart in the source and are kept apart here.

Legend:
[1] = test system: MUTU-I Burkitt’s lymphoma cell line; settings: cited from earlier work
Bjab BL cell line = experiment: alamarBlue cell viability assay; assay type: cell-based; settings: Homo sapiens, 24 h; for viability at 1 µM: read-out: % Viable Cells Remaining Bjab 24 h 1 µM; for viability at 10 µM: read-out: % Viable Cells Remaining Bjab 24 h 10 µM
Procedure: (§1) Cells were seeded at a density of 2.5 × 10^4 cells/well (MCF-7, MDA-MB-231 cells), 1 × 10^4 cells/well (HL-60 cells), 1–5 × 10^4 cells per well (BL MUTU-I, DG-75 cells) and 2 × 10^5 cells/well [HG-3, PGA-1 (CLL cells)], Ramos, BJAB (BL cells) (200 μL per well), in 96-well plates. Cells were treated with the desired drug concentration for the appropriate time for each cell type, and the samples were incubated as required. alamarBlue (20 μL) was then added to each well and the samples further incubated in the dark at 37 °C for 4 h. Wells containing only reagent and cell culture medium in the absence of cells were used as blank controls. Ethanol was used as a vehicle, and cells were treated with 1% ethanol (v/v) in all experiments. The 96-well plates were analysed on a fluorescence plate reader (SpectraMax Gemini, Molecular Devices) (emission and excitement wavelengths of 590 nm and 544 nm, respectively), and the fluorescence was recorded. The decrease in cell viability was then calculated with reference to the vehicle samples (100% viability). EMEM medium with the addition of alamarBlue was used as a blank. Vehicle-treated cells were considered to be 100% viable, and the viabilities of each compound was calculated accordingly. […] All biochemical assays were performed in triplicate on at least three independent occasions, and the mean values were determined.

Ramos BL cell line = experiment: alamarBlue cell viability assay; assay type: cell-based; settings: Homo sapiens, 24 h; for viability at 1 µM: read-out: % Viable Cells Remaining Ramos 24 h 1 µM; for viability at 10 µM: read-out: % Viable Cells Remaining Ramos 24 h 10 µM
Procedure: as §1

[2] = test system: HeLa cervical cancer cells; experiment: alamarBlue cell viability assay; settings: Homo sapiens, 24 h; for viability at 1 µM: read-out: % Viable Cells Remaining HeLa 24 h 1 µM; for viability at 10 µM: read-out: % Viable Cells Remaining HeLa 24 h 10 µM
[3] = test system: HL-60 promyelocytic leukaemia cells; experiment: alamarBlue cell viability assay; settings: Homo sapiens, HL-60, 24 h; for viability at 1 µM: read-out: % Viable Cells Remaining HL60 24 h 1 µM; for viability at 10 µM: read-out: % Viable Cells Remaining HL60 24 h 10 µM
[4] = test system: DG-75 Burkitt’s lymphoma cell line; settings: cited from earlier work
DG-75 cells = test system: DG-75 cells; set-up: method as in earlier work; settings: nitrostyrenes and taxol, MTT assay, reported data; cited from earlier work
[5] = test system: MCF-7 human breast cancer cells; experiment: alamarBlue cell viability assay; settings: MCF7, 72 h; for viability at 1 µM: read-out: % Viable Cells Remaining MCF-7 72 h 1 µM; for viability at 10 µM: read-out: % Viable Cells Remaining MCF-7 72 h 10 µM
PGA-1 CLL cell line = experiment: alamarBlue cell viability assay; settings: 24 h; for viability at 10 µM: read-out: % Viability PGA-1, 10 µM, 24 h; for IC50: read-out: PGA-1 IC50, 24 h
DG-75 BL cells = experiment: Annexin V/PI apoptotic assay (FACS); assay type: cell-based; settings: 48 h
Procedure: (§2) The chemotherapeutic drug taxol was used as a positive control. The pro-apoptotic effects of the selected nitrostyrene compounds 11g, 11h, 11i, 11j, 11k and 11l (10 μM) were determined using FITC (fluorescein isothiocyanate), Annexin V/PI (propidium iodide) staining and FACS (fluorescence-activated cell sorting) analysis to characterise the mode of cellular death induced by the synthesised compounds. Four populations were produced in this assay: Annexin-V- and PI-negative (Q4, healthy cells), Annexin-V-positive and PI-negative (Q3, early apoptosis), Annexin-V- and PI-positive (Q2, late apoptosis) and Annexin-V-negative and PI-positive (Q1, necrosis), which were easily identified and quantified. Apoptosis was assessed as % total apoptosis by a combination of early and late apoptosis (Q3 and Q2, respectively). […] The identification of compounds that can induce apoptosis in cancer cells is required in the development of potential lead structures for anticancer drugs.
(§3) The BL cells DG-75 and MUTU-I (750,000) were treated at 37 °C with either vehicle (0.1% (v/v) EtOH), […] taxol (10 μM) and incubated for 24 h (MUTU-1) or 48 h (DG-75). The CLL cells PGA1 and HG3 (1 × 10^6 cells/mL) were treated at 37 °C with either vehicle (1% (v/v) DMSO) or the nitrostyrene compounds 19a (10 μM, 5 μM and 1 μM) and 19g, 19i, 19l and 19m (10 μM and 1 μM) for 48 h. The cells were then harvested by centrifugation at 400× g in a temperature-controlled Sorvall centrifuge and rinsed with 0.5 mL of Ca^2+ Annexin-V-binding buffer (0.1 M HEPES, pH 7.4; 0.14 M NaCl; 25 mM CaCl2). The samples were resuspended in 50 µL FITC Annexin V (diluted 1:33 in Ca^2+ Annexin V-binding buffer), incubated on ice for 10 min (protected from light), washed with Annexin-V-binding buffer and re-suspended in 500 µL of propidium iodide (PI) solution (0.5 µg/mL). The samples were analysed within 1 h using a BD Accuri C6 flow cytometer counting 10,000 cells and analysed using the FlowJo software (FlowJo LLC, Ashland, OR, USA) package.

MUTU-I BL cells = experiment: Annexin V/PI apoptotic assay (FACS); assay type: cell-based; settings: 24 h
Procedure: as §2, §3

MUTU-1 cells = test system: MUTU-1 cells; set-up: method as in earlier work; settings: nitrostyrenes and taxol, MTT assay, reported data; cited from earlier work
HG-3 CLL cell line = experiment: alamarBlue cell viability assay; settings: for viability at 10 µM / viability at 1 µM / IC50: CLL cell, 24 h; for viability at 10 µM: read-out: % Viability HG-3, 10 µM, 24 h; for viability at 1 µM: read-out: % Viability HG-3, 1 µM, 24 h; for IC50: read-out: HG-3 IC50, 24 h
[6] = test system: MUTU-I Burkitt’s lymphoma cell line; experiment: alamarBlue cell viability assay; settings: MUTU-I, 24 h; for viability at 1 µM: read-out: % Viable Cells Remaining MUTU-1, 1 µM, 24 h; for viability at 10 µM: read-out: % Viable Cells Remaining MUTU-1, 10 µM, 24 h
PGA-1 CLL cells = experiment: Annexin V/PI apoptotic assay (FACS); assay type: cell-based; settings: PGA-1, 10 μM, 48 h
Procedure: (§4) The pro-apoptotic effects of the selected nitrovinylanthracene compounds 19a, 19g, 19i, 19l and 19m after 48 h were next determined using FITC (fluorescein isothiocyanate), Annexin V/PI (propidium iodide) staining and FACS (fluorescence-activated cell sorting) analysis to characterize the mode of cellular death induced. […] The CLL cells PGA1 and HG3 (1 × 10^6 cells/mL) were treated at 37 °C with either vehicle (1% (v/v) DMSO) or the nitrostyrene compounds 19a (10 μM, 5 μM and 1 μM) and 19g, 19i, 19l and 19m (10 μM and 1 μM) for 48 h. The cells were then harvested by centrifugation at 400× g in a temperature-controlled Sorvall centrifuge and rinsed with 0.5 mL of Ca^2+ Annexin-V-binding buffer (0.1 M HEPES, pH 7.4; 0.14 M NaCl; 25 mM CaCl2). The samples were resuspended in 50 µL FITC Annexin V (diluted 1:33 in Ca^2+ Annexin V-binding buffer), incubated on ice for 10 min (protected from light), washed with Annexin-V-binding buffer and re-suspended in 500 µL of propidium iodide (PI) solution (0.5 µg/mL). The samples were analysed within 1 h using a BD Accuri C6 flow cytometer counting 10,000 cells and analysed using the FlowJo software (FlowJo LLC, Ashland, OR, USA) package.

HG-3 CLL cells = experiment: Annexin V/PI apoptotic assay (FACS); assay type: cell-based; settings: 48 h
Procedure: as §4

physchem = assay type: physicochemical; settings: buffer
Procedure: A preliminary HPLC stability study was performed on a representative nitrovinylanthracene compound 19m (isopropyl) in various biologically relevant pH systems (acidic pH 4 found in the stomach, basic pH 9 found in the intestine and pH 7.4 in the plasma). […] Based on the results of this stability study, the compound 19m was determined to be suitable for further preclinical investigation.

[7] = test system: DG-75 Burkitt’s lymphoma cell line; experiment: alamarBlue cell viability assay; settings: Homo sapiens, DG-75, 48 h; for viability at 1 µM: read-out: % Viable Cells Remaining DG-75, 1 µM, 48 h; for viability at 10 µM: read-out: % Viable Cells Remaining DG-75, 10 µM, 48 h
[8] = test system: DG-75 Burkitt’s lymphoma cell line; settings: human, 48 h, 1 µM
[9] = 10 µM, total (early + late) apoptosis

Structure (SMILES): CC/C(=C\c1ccccc1Cl)[N+](=O)[O-] [Compound 11j, (E)-1-Chloro-2-(2-nitrobut-1-en-1-yl)benzene]
- % Viable Cells Remaining MUTU-1 24 h 1 µM ([1]; nitrostyrenes, 1 µM, 24 h): 64.31%
- % Viable Cells Remaining MUTU-1 24 h 10 µM ([1]; nitrostyrenes, 10 µM, 24 h): 10.3% and 10.27%
- viability at 1 µM (Bjab BL cell line): 102%
- viability at 10 µM (Bjab BL cell line): 68.9%
- viability at 1 µM (Ramos BL cell line): 66.9%
- viability at 10 µM (Ramos BL cell line): 4.4%
- viability at 1 µM [2]: 95.3%
- viability at 10 µM [2]: 21.8%
- viability at 1 µM [3]: 99.8%
- viability at 10 µM [3]: 9.1%
- % Viable Cells Remaining DG-75 48 h 1 µM ([4]; nitrostyrenes, 1 µM, 48 h): 79.77%
- % Viable Cells Remaining DG-75 48 h 10 µM ([4]; nitrostyrenes, 10 µM, 48 h): 15.89%
- IC50 (DG-75 cells): 2050 nM
- viability at 1 µM [5]: 98.1%
- viability at 10 µM [5]: 20.7%
- % Viability PGA-1 (PGA-1 CLL cell line; 10 µM): 0.53%
- viability at 1 µM (PGA-1 CLL cell line; CLL cell, read-out: % Viability PGA-1, 1 µM, 24 h): 6.31%
- viability at 10 µM (PGA-1 CLL cell line; CLL cell): 0.43%
- DG-75 Apoptosis (%) (DG-75 BL cells; [9]): 72.3%
- MUTU-I Apoptosis (%) (MUTU-I BL cells; [9]): 88.3%
- IC50 (MUTU-1 cells): 2180 nM
- viability at 10 µM (HG-3 CLL cell line): 5.61%

Structure (SMILES): CC(C)c1c2ccccc2c(/C=C/[N+](=O)[O-])c2ccccc12 [Compound 19m, (E)-9-Isopropyl-10-(2-Nitrovinyl)Anthracene]
- viability at 1 µM [6]: 78.4%
- viability at 10 µM [6]: 0.21%
- viability at 10 µM (PGA-1 CLL cell line; CLL cell): 2.9%
- IC50 (PGA-1 CLL cell line; CLL cell): 9100 nM
- total apoptosis (PGA-1 CLL cells): 74%
- total apoptosis (HG-3 CLL cells; HG-3, 1 μM): 25%
- total apoptosis (HG-3 CLL cells; HG-3, 10 μM): 69%
- half-life (physchem; pH 4): > 24 h
- remaining at 24 h (physchem; pH 4): 55%
- half-life (physchem; pH 7.4): > 24 h
- remaining at 24 h (physchem; pH 7.4): 56%
- half-life (physchem; pH 9): 19 h
- remaining at 24 h (physchem; pH 9): 42%
- viability at 1 µM [7]: 85.2%
- viability at 10 µM [7]: 28.1%
- viability at 1 µM (HG-3 CLL cell line): 82%
- viability at 10 µM (HG-3 CLL cell line): 0.9%
- IC50 (HG-3 CLL cell line): 700 nM
- fold greater response (IC50) in HG-3 compared to PGA-1 cells (HG-3 CLL cell line; ratio of IC50 values): 13 fold

Structure (SMILES): CC(=O)O[C@H]1C(=O)[C@@]2(C)[C@H]([C@H](OC(=O)c3ccccc3)[C@]3(O)C[C@H](OC(=O)[C@H](O)[C@@H](NC(=O)c4ccccc4)c4ccccc4)C(C)=C1C3(C)C)[C@]1(OC(C)=O)CO[C@@H]1C[C@@H]2O [Taxol, taxol, reference compound]
- IC50 ([1]; read-out: IC50 MUTU-I, previous work): 320 nM
- viability at 1 µM (Bjab BL cell line): 97.6%
- viability at 10 µM (Bjab BL cell line): 80.2%
- viability at 1 µM (Ramos BL cell line): 69.3%
- viability at 10 µM (Ramos BL cell line): 24.9%
- viability at 1 µM [2]: 86.9%
- viability at 10 µM [2]: 48.4%
- viability at 1 µM [3]: 97.6%
- viability at 10 µM [3]: 69.7%
- % Viable Cells Remaining DG-75 48 h 1 µM [4]: >90%
- IC50 ([4]; read-out: IC50 DG-75, previous work): 1320 nM
- viability at 1 µM [6]: 32%
- viability at 10 µM [6]: 7%
- IC50 (DG-75 cells): 1320 nM
- viability at 1 µM [5]: 101%
- viability at 10 µM [5]: 75%
- DG-75 Apoptosis (%) (DG-75 BL cells; 1 µM): 20.7%
- DG-75 Apoptosis (%) (DG-75 BL cells; [9]): 72.8%
- MUTU-I Apoptosis (%) (MUTU-I BL cells; 1 µM): 62.8%
- MUTU-I Apoptosis (%) (MUTU-I BL cells; [9]): 87.3%
- MUTU-I Apoptosis (%) (MUTU-I BL cells; 10 µM, total (early + late) apoptosis, listed as taxol): 87%
- viability at 1 µM [7]: > 90%
- viability at 10 µM [7]: 40%
- IC50 (MUTU-1 cells): 300 nM
- % Viable Cells Remaining DG-75 [8]: 90.0%

Structure (SMILES): CCc1c2ccccc2c(/C=C/[N+](=O)[O-])c2ccccc12 [Compound 19l, (E)-9-Ethyl-10-(2-Nitrovinyl)Anthracene]
- viability at 1 µM [6]: 72.7%
- viability at 10 µM [6]: 0.5%
- viability at 10 µM (PGA-1 CLL cell line; CLL cell): 2.7%
- IC50 (PGA-1 CLL cell line; CLL cell): 1300 nM
- total apoptosis (PGA-1 CLL cells): 82%
- total apoptosis (HG-3 CLL cells; HG-3, 10 μM): 74%
- viability at 1 µM [7]: 104%
- viability at 10 µM [7]: 4.04%
- viability at 1 µM (HG-3 CLL cell line): 78%
- viability at 10 µM (HG-3 CLL cell line): 0.5%
- IC50 (HG-3 CLL cell line): 5400 nM
